Data taken from patent US5164513A, “Imidazole derivative” (SS Pharmaceutical Co., Ltd., priority 1987, dated 1992).
Converted amounts (≈) assume the structure as drawn.

Tests used:
Type in all cases: cell-based
[1] = system: Debaryomyces kloeckeri IFO 0015; assay: Antimicrobial activity (MIC); conditions: IFO0015
[2] = system: Trichophyton mentagrophytes QM 248; assay: Antimicrobial activity (MIC); conditions: QM248
[3] = system: Bacillus subtilis ATCC 6633; assay: Antimicrobial activity (MIC); conditions: ATCC6633
[4] = system: Saccharomyces cerevisiae ATCC 9763; assay: Antimicrobial activity (MIC); conditions: ATCC9763
[5] = system: Aspergillus oryzae IMF 4014; assay: Antimicrobial activity (MIC); conditions: IMF4014
[6] = system: Fusarium moniliforme IAM 5062; assay: Antimicrobial activity (MIC); conditions: Fusarium verticillioides, IAM5062
[7] = system: Microsporum gypseum IFO 8231; assay: Antimicrobial activity (MIC); conditions: Nannizzia gypsea, IFO8231
Saccharomyces ruxii 6507 = assay: Antimicrobial activity (MIC)
Candida albicans Yu-1200 = assay: Antimicrobial activity (MIC); conditions: YU1200
[8] = system: Epidermophyton floccosum IFO 9045; assay: Antimicrobial activity (MIC); conditions: IFO9045
[9] = system: Pyricularia oryzae IAM 5016; assay: microbe, parasite or virus in culture; conditions: IAM5016
Sarcina lutea ATCC 9341 = assay: Antimicrobial activity (MIC); conditions: Micrococcus luteus, ATCC9341
[10] = system: Micrococcus lysodeikticus IFO 3333; assay: Antimicrobial activity (MIC); conditions: Micrococcus luteus, IFO3333
[11] = system: Staphylococcus aureus Terajima; assay: Antimicrobial activity (MIC)
[12] = system: Helminthosporium sesamum IAM 5012; assay: Antimicrobial activity (MIC); conditions: IAM5012
[13] = system: Microsporum audounii IFO 6074; assay: Antimicrobial activity (MIC); conditions: IFO6074
[14] = system: Streptococcus faecalis IFO 12964; assay: Antimicrobial activity (MIC); conditions: Enterococcus faecalis, IFO12964
[15] = system: Candida albicans NHL 4019; assay: Antimicrobial activity (MIC); conditions: NHL4019
[16] = system: Trichophyton rubrum NHL J; assay: Antimicrobial activity (MIC)
[17] = system: Aspergillus niger ATCC 9642; assay: Antimicrobial activity (MIC); conditions: ATCC9642
[18] = system: Gibberella fujikuroi IAM 8046; assay: Antimicrobial activity (MIC); conditions: Fusarium fujikuroi, IAM8046
[19] = system: Trichophyton mentagrophytes IFO 5812; assay: Antimicrobial activity (MIC); conditions: IFO5812
[20] = system: Trichophyton tonsurans IFO 5928; assay: Antimicrobial activity (MIC); conditions: IFO5928
[21] = system: Penicillium chrysogenum ATCC 6010; assay: Antimicrobial activity (MIC); conditions: ATCC6010
[22] = system: Staphylococcus epidermidis ATCC 12228; assay: Antimicrobial activity (MIC); conditions: ATCC12228
[23] = system: Staphylococcus aureus Smith; assay: Antimicrobial activity (MIC)
[24] = system: Microsporum cookei IFO 8303; assay: Antimicrobial activity (MIC); conditions: Paraphyton cookei, IFO8303
[25] = system: Cladosporium fulvum IAM 5006; assay: Antimicrobial activity (MIC); conditions: Fulvia fulva, IAM5006
[26] = system: Staphylococcus aureus FDA 209P; assay: Antimicrobial activity (MIC); conditions: FDA209P

Row | SMILES | MIC [1] [µg/mL] | MIC [2] [µg/mL] | MIC [3] [µg/mL] | MIC [4] [µg/mL] | MIC [5] [µg/mL] | MIC [6] [µg/mL] | MIC [7] [µg/mL] | MIC (Saccharomyces ruxii 6507) [µg/mL] | MIC (Candida albicans Yu-1200) [µg/mL] | MIC [8] [µg/mL] | MIC [9] [µg/mL] | MIC (Sarcina lutea ATCC 9341) [µg/mL] | MIC [10] [µg/mL] | MIC [11] [µg/mL] | MIC [12] [µg/mL] | MIC [13] [µg/mL] | MIC [14] [µg/mL] | MIC [15] [µg/mL] | MIC [16] [µg/mL] | MIC [17] [µg/mL] | also measured
1 | CCCCCCCCOc1ccccc1C(C)(O)Cn1ccnc1 (stereo not shown) [Compound 8] | 3.12 (≈ 9.44 µM) | 0.006 (≈ 0.0182 µM) | 3.12 (≈ 9.44 µM) | 0.025 (≈ 0.0756 µM) | < 0.006 | 3.12 (≈ 9.44 µM) | 0.006 (≈ 0.0182 µM) | 0.39 (≈ 1.18 µM) | 12.5 (≈ 37.8 µM) | 0.1 (≈ 0.303 µM) | < 0.006 | 0.2 (≈ 0.605 µM) | 1.56 (≈ 4.72 µM) | 3.12 (≈ 9.44 µM) | < 0.006 | < 0.006 | 6.25 (≈ 18.9 µM) | 12.5 (≈ 37.8 µM) | < 0.006 | 0.025 (≈ 0.0756 µM) | MIC [18]: 0.78 µg/mL (≈ 2.36 µM); MIC [19]: < 0.006 µg/mL; MIC [20]: < 0.006 µg/mL; MIC [21]: 3.12 µg/mL (≈ 9.44 µM); MIC [22]: 0.39 µg/mL (≈ 1.18 µM); MIC [23]: 3.12 µg/mL (≈ 9.44 µM); MIC [24]: 0.012 µg/mL (≈ 0.0363 µM); MIC [25]: 0.78 µg/mL (≈ 2.36 µM); MIC [26]: 3.12 µg/mL (≈ 9.44 µM)
2 | CCCCCCCCCOc1ccccc1C(C)(O)Cn1ccnc1 (stereo not shown) [Compound 59] | 12.5 (≈ 36.3 µM) | < 0.006 | 6.25 (≈ 18.1 µM) | 12.5 (≈ 36.3 µM) | < 0.006 | 6.25 (≈ 18.1 µM) | < 0.006 | 0.78 (≈ 2.26 µM) | 25 (≈ 72.6 µM) | 0.2 (≈ 0.581 µM) | < 0.006 | 0.05 (≈ 0.145 µM) | 1.56 (≈ 4.53 µM) | 6.25 (≈ 18.1 µM) | < 0.006 | < 0.006 | 6.25 (≈ 18.1 µM) | 12.5 (≈ 36.3 µM) | < 0.006 | 0.1 (≈ 0.29 µM) | MIC [18]: 1.56 µg/mL (≈ 4.53 µM); MIC [19]: < 0.006 µg/mL; MIC [20]: < 0.006 µg/mL; MIC [21]: 6.25 µg/mL (≈ 18.1 µM); MIC [22]: 1.56 µg/mL (≈ 4.53 µM); MIC [23]: 6.25 µg/mL (≈ 18.1 µM); MIC [24]: 0.1 µg/mL (≈ 0.29 µM); MIC [25]: 1.56 µg/mL (≈ 4.53 µM); MIC [26]: 6.25 µg/mL (≈ 18.1 µM)
